According to PMC9180407, “Unraveling the Binding Mechanism of Alzheimer’s Drugs with Irisin: Spectroscopic, Calorimetric, and Computational Approaches” (International Journal of Molecular Sciences, 2022):
Where two headings read alike, the source gives them in different places.

Target: T1, irisin (Homo sapiens, UniProt Q8NAU1)
T1 construct: gene FNDC5; irisin (secreted ectodomain cleaved from FNDC5), His tag with 3C site (pET15b-His-3C-irisin), tag cleavage not mentioned, E. coli C41-DE3, Ni-NTA purified
T1 sequence (Q8NAU1 80-191 limits assumed): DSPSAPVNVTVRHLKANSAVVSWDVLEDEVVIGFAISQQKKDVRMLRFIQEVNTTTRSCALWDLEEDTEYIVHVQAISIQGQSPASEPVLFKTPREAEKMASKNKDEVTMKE
Assay: isothermal titration calorimetry
Type: binding
Description: isothermal titration calorimetry on irisin

Structure (SMILES) | Kd (read-out: Ka1 (converted)) [µM] | Kd (read-out: Ka2 (converted)) [µM]
CNCCC(Oc1ccc(C(F)(F)F)cc1)c1ccccc1 (stereo not drawn) [fluoxetine] | 0.156 | –
COc1ccc2c3c1O[C@H]1C[C@@H](O)C=C[C@@]31CCN(C)C2 [galantamine] | – | 8.06
CC12CC3CC(C)(C1)CC(N)(C3)C2 [memantine] | – | 9.35
